Data as given in patent publication US10882856B2 (BeiGene, Ltd., priority 2017, dated 2021).
pEC50, pIC50: −log10 of the molar value. Structures can show the parent of a compound that is named as a salt. Where two headings read alike, the source gives them in different places.

Key:
IDO1 [1] = molecular target: T1, IDO1 (Homo sapiens, UniProt P14902); experiment: Hela cell-based IDO1 assay; details: Hela cells
Procedure, shortened: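 Kynurenine was measured at 480 nm in trichloroacetic acid-deproteinised supernatant after adding 2% 4-(dimethylamino)benzaldehyde. This supernatant came from HeLa cells seeded at 8000 per well in 96-well plates in phenol red-free DMEM with 10% FBS and, from 4 hours after seeding, exposed for 48 hours at 37 °C, 5% CO2 to DMSO-diluted compound dilutions, IFN-γ (final 100 ng/mL) and 0.4 mM L-Trp. The resulting data were fitted with a four-parameter logistic model in XLfit. Potency was taken from those fits.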

IDO1 [2] = molecular target: T1, IDO1; experiment: IDO1 enzymatic assay; type: biochemical; parameters: His tag (N); made in house; host or cells: E. coli
Procedure, shortened: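 IC50 values reflect remaining IDO1 activity over increasing compound concentrations. The enzyme (50 nM, N-terminally His-tagged, purified from E. coli) was incubated for 1.5 hours at 24 °C with compound, 1.3 mM D-tryptophan, 5 mM L-ascorbic acid, methylene blue and 0.4 mg/mL catalase in 50 mM potassium phosphate pH 7.5 with 0.1% BSA. The slope of N'-formylkynurenine formation, read continuously at 321 nm for 1 hour, served as activity.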

[3] = molecular target: T2, cellular TDO2 in HEK293-TDO2 cells (Homo sapiens, UniProt P48775); experiment: 293-TDO2 cell-based assay (Kyn colorimetric); details: 48 hours of incubation
T2 construct: expressed in transfected cells; host or cells: HEK293 (ATCC), stably transfected
Procedure, shortened: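 Kyn formed from L-Trp was read colorimetrically at 480 nm (TCA deproteinisation, then 2% 4-(dimethylamino)benzaldehyde). Compounds were added to 293-TDO2 cells 4 h post-seeding and left 48 h at 37° C. A four-parameter logistic model gave IC50 values.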

T1 sequence (P14902 whole entry): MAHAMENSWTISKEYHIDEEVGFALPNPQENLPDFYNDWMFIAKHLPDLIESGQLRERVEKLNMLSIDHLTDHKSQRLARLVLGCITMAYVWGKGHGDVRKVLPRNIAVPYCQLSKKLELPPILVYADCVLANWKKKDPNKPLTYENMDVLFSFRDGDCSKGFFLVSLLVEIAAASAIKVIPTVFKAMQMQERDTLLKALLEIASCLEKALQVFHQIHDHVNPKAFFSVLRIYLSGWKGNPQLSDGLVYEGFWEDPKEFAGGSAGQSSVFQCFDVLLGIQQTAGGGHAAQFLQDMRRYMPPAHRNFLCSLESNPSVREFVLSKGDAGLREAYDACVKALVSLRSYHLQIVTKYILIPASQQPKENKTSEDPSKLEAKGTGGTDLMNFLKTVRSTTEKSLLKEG
T2 sequence (P48775 whole entry): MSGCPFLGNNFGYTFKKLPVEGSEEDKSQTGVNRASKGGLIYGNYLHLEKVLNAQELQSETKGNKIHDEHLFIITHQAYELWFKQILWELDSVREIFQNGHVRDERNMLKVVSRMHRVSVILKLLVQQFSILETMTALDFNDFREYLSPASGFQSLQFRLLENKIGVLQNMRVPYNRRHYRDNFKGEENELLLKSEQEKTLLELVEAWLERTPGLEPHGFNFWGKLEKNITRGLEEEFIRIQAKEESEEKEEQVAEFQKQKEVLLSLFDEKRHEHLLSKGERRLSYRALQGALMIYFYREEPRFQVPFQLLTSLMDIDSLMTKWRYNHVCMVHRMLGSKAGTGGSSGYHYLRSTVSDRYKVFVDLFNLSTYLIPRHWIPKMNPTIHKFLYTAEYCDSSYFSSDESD

Row | pEC50 (IDO1 [1]) | pIC50 (IDO1 [2]; read-out: Enzyme IC50 IDO1) | pEC50 [3] | pIC50 (IDO1 [2]; heading: Enzyme IC50 IDO1) | SMILES
1 | 6.95 | 7.68 | < 5.00 | – | OC(c1c(C2CC2)ccc2cncn12)[C@H]1CC[C@H](c2cccc(F)c2F)CC1 (single isomer, unassigned) [Example D132a]
2 | 5.07 | < 5.00 | < 5.00 | – | O[C@@H](c1c(C2CC2)ccc2cncn12)[C@H]1CC[C@H](c2ccc(Cl)c(F)c2)CC1 (single isomer, unassigned) [Example D128b]
3 | 5.55 | 5.01 | < 5.00 | – | CC(C)c1ccc2cncn2c1[C@H](O)[C@H]1CC[C@H](c2cccc(F)c2)CC1 (single isomer, unassigned) [Example D167b]
4 | 5.05 | < 5.00 | < 5.00 | – | O[C@@H](c1c(C2CC2)ccc2cncn12)[C@H]1CC[C@H](c2ccc3sccc3c2)CC1 (single isomer, unassigned) [Example D133b]
5 | 6.68 | 7.55 | < 5.00 | – | COc1ccc(C2CCC(C(O)c3c(C4CC4)ccc4cncn34)CC2)c(F)c1 (stereo not drawn) [Example D146, (6-cyclopropylimidazo[1,5-a]pyridin-5-yl)(4-(2-fluoro-4-methoxyphenyl)cyclohexyl)methanol]
6 | 5.28 | < 5.00 | < 5.00 | – | CC(C)c1ccc2cncn2c1[C@H](O)[C@H]1CC[C@H](c2ccc(F)cc2)CC1 (single isomer, unassigned) [Example D166b]
7 | 5.34 | 5.57 | < 5.00 | – | O[C@@H](c1c(C2CC2)ccc2cncn12)[C@H]1CC[C@H](c2ccc(F)cc2F)CC1 (single isomer, unassigned) [Example D127b]
8 | 6.07 | 7.62 | < 5.00 | – | CN(C)C(=O)c1ccc(C2CCC(C(O)c3c(C4CC4)ccc4cncn34)CC2)cc1 (stereo not drawn) [Example D125, 4-(4-((6-cyclopropylimidazo[1,5-a]pyridin-5-yl)(hydroxy)methyl)cyclohexyl)-N,N-dimethylbenzamide]
9 | 5.45 | 5.66 | < 5.00 | – | O[C@@H](c1c(C2CC2)ccc2cncn12)[C@H]1CC[C@H](c2ccc(-c3ccccc3)cc2)CC1 (single isomer, unassigned) [Example D119b]
10 | 6.91 | 7.72 | < 5.00 | – | COc1ccc([C@H]2CC[C@H](C(O)c3c(C4CC4)ccc4cncn34)CC2)c(F)c1 (single isomer, unassigned) [Example D146a]
11 | 5.19 | < 5.00 | < 5.00 | – | O[C@@H](c1c(C2CC2)ccc2cncn12)[C@H]1CC[C@H](c2ccc(Cl)cc2F)CC1 [Example D131b, (R)-((1r,4R)-4-(4-chloro-2-fluorophenyl)cyclohexyl)(6-cyclopropylimidazo[1,5-a]pyridin-5-yl)methanol hydrochloride]
12 | 6.70 | 7.70 | < 5.00 | – | COc1ccc([C@H]2CC[C@H]([C@H](O)c3c(C4CC4)ccc4cncn34)CC2)c(Cl)c1 (single isomer, unassigned) [Example D147a]
13 | 7.40 | 7.52 | < 5.00 | – | OC(c1c(C2CC2)ccc2cncn12)C1CCN(c2cccc3ncncc23)CC1 (stereo not drawn) [Example D180, (6-cyclopropylimidazo[1,5-a]pyridin-5-yl)(1-(quinazolin-5-yl)piperidin-4-yl)methanol]
14 | 5.83 | 5.64 | < 5.00 | – | O[C@@H](c1c(C2CC2)ccc2cncn12)C1CCN(c2ccc(Cl)c3ncccc23)CC1 (single isomer, unassigned) [Example D178b]
15 | 5.15 | < 5.00 | < 5.00 | – | COc1ccc([C@H]2CC[C@H](C(O)c3c(C4CC4)ccc4cncn34)CC2)cc1Cl (single isomer, unassigned) [Example D148b, hydrochloride]
16 | 6.15 | 7.00 | < 5.00 | – | OC(c1c(C2CC2)ccc2cncn12)C1CCC(c2ccc(Oc3ccccc3)cc2)CC1 (stereo not drawn) [Example D120, (6-cyclopropylimidazo[1,5-a]pyridin-5-yl)(4-(4-phenoxyphenyl)cyclohexyl)methanol]

The remaining lines, values behind:

Row | SMILES | pEC50 (IDO1 [1]) | pIC50 (IDO1 [2]; read-out: Enzyme IC50 IDO1) | pEC50 [3] | pIC50 (IDO1 [2]; heading: Enzyme IC50 IDO1)
17 | O[C@H](c1c(C2CC2)ccn2cncc12)[C@H]1CC[C@H](c2ccc(F)c(Cl)c2)CC1 (single isomer, unassigned) [Example C132a] | 6.73 | 7.19 | < 5.00 | –
18 | COc1ccc([C@H]2CC[C@H]([C@@H](O)c3c(C4CC4)ccc4cncn34)CC2)cc1 (single isomer, unassigned) [Example D102b] | 5.17 | – | < 5.00 | < 5.00
19 | O=C(O)c1ccc([C@H]2CC[C@H]([C@@H](O)c3c(C4CC4)ccc4cncn34)CC2)cc1 (single isomer, unassigned) [Example D111b] | < 5.00 | 5.92 | < 5.00 | –
20 | OC(c1c(C2CC2)ccn2cncc12)C1CCN(c2ccccc2)CC1 (stereo not drawn) [Example C136, (7-cyclopropylimidazo[1,5-a]pyridin-8-yl)(1-phenylpiperidin-4-yl)methanol] | 7.54 | 7.13 | < 5.00 | –
21 | OCC(CCl)Oc1ccc(C2CCC(C(O)c3c(C4CC4)ccc4cncn34)CC2)cc1 (stereo not drawn) [Example D108, 3-chloro-2-(4-(4-((6-cyclopropylimidazo[1,5-a]pyridin-5-yl) (hydroxy)methyl)cyclohexyl)phenoxy)propan-1-ol] | 7.14 | 7.52 | < 5.00 | –
22 | O=C(O)c1ccc([C@H]2CC[C@H]([C@H](O)c3c(C4CC4)ccc4cncn34)CC2)cc1 (single isomer, unassigned) [Example D111a] | 6.45 | 7.77 | < 5.00 | –
23 | OC(c1c(C2CC2)ccn2cncc12)C1CCC(c2ccccc2F)CC1 (racemic) [Example C108, (7-cyclopropylimidazo[1,5-a]pyridin-8-yl)(4-(2-fluorophenyl)cyclohexyl)methanol] | 6.49 | 7.23 | < 5.00 | –
24 | Oc1ccccc1[C@H]1CC[C@H]([C@H](O)c2c(C3CC3)ccc3cncn23)CC1 (single isomer, unassigned) [Example D112a] | 7.59 | 7.82 | < 5.00 | –
25 | COc1cccc(C2CCC(C(O)c3c(C4CC4)ccn4cncc34)CC2)c1 (stereo not drawn) [Example C114, (7-cyclopropylimidazo[1,5-a]pyridin-8-yl)(4-(3-methoxyphenyl)cyclohexyl)methanol] | 6.71 | 7.29 | < 5.00 | –
26 | N#Cc1ccc(C2CCC(C(O)c3c(C4CC4)ccc4cncn34)CC2)cc1 (stereo not drawn) [Example D110, 4-(4-((6-cyclopropylimidazo[1,5-a]pyridin-5-yl)(hydroxy)methyl)cyclohexyl)benzonitrile] | 6.43 | 7.40 | < 5.00 | –
27 | OC(c1c(C2CC2)ccn2cncc12)C1CCC(c2ccc3c(c2)OCO3)CC1 (stereo not drawn) [Example C123, (4-(benzo[dl][1,3]dioxol-5-yl)cyclohexyl)(7-cyclopropylimidazo[1,5-a]pyridin-8-yl) methanol] | 6.43 | 7.82 | < 5.00 | –
28 | OC(c1c(C2CC2)ccn2cncc12)C1CCN(c2ccc(F)c3ncccc23)CC1 (single isomer, unassigned) [Example C149b] | 5.54 | 5.62 | < 5.00 | –
